Like-named read-outs stand apart in the source and are kept apart here.
Legend:
[1] = system: ovariectomized mature female rats; experiment: Ovariectomized mature female rat model; type: in vivo; conditions: for uterine wet weight decrease after OVX surgery / bone density decrease caused by OVX (uCT trabecular bone in the femur, pQCT distal femur): daily for 8 weeks, 17α-ethynylestradiol 0.03 mg/kg/day; for uterine wet weight decrease after OVX surgery: Compound 1 0.01, 0.05, 0.25 mg/kg (all doses); for bone density decrease caused by OVX (uCT trabecular bone in the femur, pQCT distal femur): Compound 1 0.01, 0.05, 0.25 mg/kg
Description: Ovariectomized mature female rats are used to characterize primarily bone activity of the compositions provided herein or the individual SERM or SARM compounds. A sham group is used as control. The model can be run in either maintenance mode where the animals are dosed one day after the ovariectomy or restoration mode where the animals are dosed seven to eight weeks after the surgery. The rats are scanned by dual energy x-ray absorptiometry and sorted into experimental groups based upon femoral bone mineral content (BMC). Three dosages of testing compositions/compounds are administered orally once a day for 4, 8, or 12 weeks and estradiol and testosterone are administered subcutaneously to the reference groups. Animals received subcutaneous injections of fluorochrome markers for bone histomorphometric analysis. Alizarian Red S was prepared as a 3% solution and given at a dose of 30 mg/kg at the time of the baseline scan. Calcein was administered 10 days and 3 days prior to necropsy.
Approximately 24 hours after the last dose, blood is collected and the gastrocnemius muscle, plantaris muscle, uterus, clitoral glands, clitoris and inguinal fat pads were isolated, blotted and weighed individually. The left femur and lumbar vertebra L5 are wrapped in saline-soaked gauze and stored at −20° C. for biochemical analysis. The right femur and lumbar vertebrae L3-L4 are collected and stored in 70% ethanol for histomorphometry. The right tibia is collected in formalin for histological analysis. The left tibia is collected on dry ice and stored at −20° C. for measurement of alkaline phosphatase activity.
BMC, bone mineral density (BMD) and bone length are measured by pDEXA on an entire femur. The coefficient of variation for repeated measurement of the isolated femur is less than 0.4% for the BMC and the BMD measurements. […] Serum osteocalcin, a marker for bone turnover, and alkaline phosphatase derived from the tibial periosteum are also measured. Whole femurs are collected for biomechanical analysis and thawed at room temperature prior to testing. Peak load and peak displacement are measured directly from the load cell and the crosshead, respectively. Stiffness is calculated from the slope of the linear region of the load/displacement curve. Lumbar vertebra L5 is also measured in the mechanical testing for bone strength.
Bone histomorphometry is performed to indicate growth of the new bone during the study. The section from the lumbar vertebral bodies is used for histomorphometric indices of cancellous bone, while the sections of the femur mid-shafts are used for histomorphometric indices of cortical bone.
Body weight, gastrocnemius weight and plantaris weight changes are measured indicating anabolic activity of the testing compositions/compounds on skeletal muscle. Inguinal fat pad weight is used as a representative fat pad to assess the effects of the testing compounds on body fat. Clitoral gland and clitoral weights are measured to assess the virilizing effect of drugs.
In the maintenance node of this model, (5R,6S)-6-phenyl-5-[4-(2-pyrrolidin-1-ylethoxy)phenyl]-5,6,7,8-tetrahydronaphthalen-2-ol (Compound 1) was dosed daily at 0 (sham), 0 (OVX), 0.01, 0.05, and 0.25 mg/kg for 8 weeks and 17α-ethynylestradiol was dosed at 0.03 mg/kg/day. […] Micro-computerized tomography (uCT) measured the density and connectivity of the trabecular bone in the femur and pQCT measured at the distal femur.
In the restoration mode of this osteopenic female rat model, 4-(2(R)-(1(S)-hydroxyl-2,2,2-trifluoroethyl)-pyrrolidinyl)-2-trifluoromethylbenzonitrile (Compound 2, Formula I, R^1═CF3, R^2═R^3═H) was dosed at 0 (sham), 0 (OVX), 0.03, 0.3, and 3 mg/kg orally for 12 weeks. […] Compound 2 suppressed cancellous bone turnover while increasing trabecular bone volume and increasing bone mineral density at the lumbar spine.
In the same experiment of Compound 2, another SARM compound, ostarine, was dosed at 0.03, 0.3, and 3 mg/kg/day orally for 12 weeks.

[2] = system: intact cynomolgus male and female monkeys; experiment: Intact cynomolgus monkey model; type: in vivo; conditions: females, Day 90
[3] = system: healthy male subjects; type: in vivo, human
Description: In a random, double-blind, placebo controlled study, Compound 1 was given orally to healthy male subjects age from 18 to 45 years. Subjects received either placebo or Compound 1 under fasted/fed conditions at single escalating doses of 0, 1, 3, 10, 30, and 100 mg. Total serum T level was determined at days 0, 1, 7, 14, 21, and 28.

[4] = system: postmenopausal women; conditions: cited from earlier work
[5] = system: ER; conditions: read-out: IC50 binding affinity to ER; cited from earlier work
[6] = system: intact cynomolgus male and female monkeys; experiment: Intact cynomolgus monkey model; type: in vivo; conditions: Day 90
Description: Intact cynomolgus male and female monkeys are used to assess of the effects of the compositions provided herein or the individual SERM or SARM compounds on hypothalamic-pituitary-gonadal axis and lipid profile. All animals are dosed via oral or nasol gavage once daily for consecutive days with either vehicle or testing articles of different doses. The first day of dosing is designated Day 1 for all animals. Blood samples are collected for analysis of LH, FSH, T, Estrodiol, total cholesterol, triglycerides, cortisol, and coagulation parameters included prothrombin time (PT) and activated partial thromboplastin time on Days −3 and end of the study.
In this model, Compound 2 was dosed at 0, 5, 50, 150, and 450 mg/kg/day for 14 days. […] In a separate study, the compound was dosed at 0, 3, 10, 30, 120, and 500 mg/kg/day for 30 days. […] Serum testosterone was suppressed in males as indicated by lower 75th, 50th, and 25th percentile values in samples from treated monkeys than vehicle controls.
In this model, Compound 1 was dosed at 0, 1, 5, and 15 mg/kg/day for 3 months.

[7] = biological target: T1, 5α-reductase type I isoenzyme (Homo sapiens, UniProt P18405); conditions: cited from earlier work
T1 sequence (P18405 1-259): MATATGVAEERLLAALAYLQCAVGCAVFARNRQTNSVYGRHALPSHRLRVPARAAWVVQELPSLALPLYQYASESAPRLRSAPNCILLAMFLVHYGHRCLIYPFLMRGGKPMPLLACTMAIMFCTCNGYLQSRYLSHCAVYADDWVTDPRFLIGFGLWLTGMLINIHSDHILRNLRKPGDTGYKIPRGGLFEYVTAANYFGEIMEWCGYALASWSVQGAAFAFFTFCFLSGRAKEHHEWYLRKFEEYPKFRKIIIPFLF

[8] = system: prostate DHT level; conditions: in clinic; up to; cited from earlier work
[9] = system: orchidectomized male Sprague-Dawley rat; experiment: Orchidectomized mature male rat model; conditions: based on AUC-activity relationship analysis
[10] = 100 mg fasted, single oral dose
[11] = OVX rat, subcutaneous reference

Molecule: 17α-ethynylestradiol
- uterine wet weight decrease after OVX surgery ([1]; maintenance mode): completely blocked
- bone density decrease caused by OVX (uCT trabecular bone in the femur, pQCT distal femur) ([1]; maintenance mode): prevent the bone density decrease

Molecule: Oc1ccc2c(c1)CC[C@H](c1ccccc1)[C@@H]2c1ccc(OCCN2CCCC2)cc1 [Compound 1, (5R,6S)-6-phenyl-5-[4-(2-pyrrolidin-1-ylethoxy)phenyl]-5,6,7,8-tetrahydronaphthalen-2-ol]
- serum cholesterol increase, of the corresponding Day −7 values ([2]; 1 mg/kg/day for 3 months): 26%
- serum cholesterol increase, of the corresponding Day −7 values ([2]; 5 mg/kg/day for 3 months): 16%
- Changes of T levels from baseline, Day 1 2 h ([3]; 1 mg fasted, single oral dose): 9.9%
- Changes of T levels from baseline, Day 29 ([3]; 1 mg fasted, single oral dose): 18%
- Changes of T levels from baseline, Day 1 2 h ([3]; 3 mg fasted, single oral dose): 13%
- Changes of T levels from baseline, Day 22 ([3]; 3 mg fasted, single oral dose): 68%
- Changes of T levels from baseline, Day 29 ([3]; 3 mg fasted, single oral dose): 50%
- Changes of T levels from baseline, Day 1 2 h ([3]; 10 mg fasted, single oral dose): −0.5%
- Changes of T levels from baseline, Day 15 ([3]; 10 mg fasted, single oral dose): 67%
- Changes of T levels from baseline, Day 22 ([3]; 10 mg fasted, single oral dose): 81%
- Changes of T levels from baseline, Day 29 ([3]; 10 mg fasted, single oral dose): 29%
- Changes of T levels from baseline, Day 1 2 h ([3]; 30 mg fasted, single oral dose): −6.9%
- Changes of T levels from baseline, Day 1 12 h ([3]; 30 mg fasted, single oral dose): −64%
- Changes of T levels from baseline, Day 8 ([3]; 30 mg fasted, single oral dose): 39%
- Changes of T levels from baseline, Day 15 ([3]; 30 mg fasted, single oral dose): 71%
- Changes of T levels from baseline, Day 22 ([3]; 30 mg fasted, single oral dose): 78%
- Changes of T levels from baseline, Day 29 ([3]; 30 mg fasted, single oral dose): 81%
- Changes of T levels from baseline, Day 1 12 h [3, 10]: −50%
- Changes of T levels from baseline, Day 8 [3, 10]: 84%
- Changes of T levels from baseline, Day 15 [3, 10]: 104%
- Changes of T levels from baseline, Day 22 [3, 10]: 92%
- Changes of T levels from baseline, Day 29 [3, 10]: 114%
- Changes of T levels from baseline, Day 1 12 h ([3]; 100 mg fed, single oral dose): −48%
- Changes of T levels from baseline, Day 8 ([3]; 100 mg fed, single oral dose): 86%
- Changes of T levels from baseline, Day 15 ([3]; 100 mg fed, single oral dose): 89%
- Changes of T levels from baseline, Day 29 ([3]; 100 mg fed, single oral dose): 91%
- stimulation of T production (pharmacokinetic/pharmacodynamic profile in men) ([3]; men): superior potency and prolonged mechanism of action
- total serum T level ([3]; single escalating oral doses 1 to 100 mg): dose related increase
- beneficial effects in postmenopausal women [4]: reduced risks of nonvertebral and vertebral fractures, ER-positive breast cancer, coronary heart disease, and stroke
- triglycerides ([6]; especially in males, 1, 5, 15 mg/kg/day for 3 months): significant increase
- serum cholesterol increase, of the corresponding Day −7 values ([6]; females, 15 mg/kg/day for 3 months): 7.8%
- serum cholesterol ([6]; males, 1, 5, 15 mg/kg/day for 3 months): did not change
- bone strength on the lumbar vertebrae ([1]; maintenance mode, 8 weeks daily dosing): maintained the bone strength
- uterine wet weight decrease after OVX surgery ([1]; maintenance mode): block the decrease but at much less extend
- bone density decrease caused by OVX (uCT trabecular bone in the femur, pQCT distal femur) ([1]; maintenance mode): prevent the bone density decrease

Molecule: CCC(=O)O[C@H]1CC[C@H]2[C@@H]3CCC4=CC(=O)CC[C@]4(C)[C@H]3CC[C@]12C [Testosterone propionate]
- clitoral gland and clitoral weights (virilizing effect) ([1]; OVX rat, 1 mg/kg daily dose): significantly increases

Molecule: C[C@]12CC[C@H]3[C@@H](CCC4=CC(=O)CC[C@@]43C)[C@@H]1CC[C@@H]2O [Testosterone, testosterone]
- femur bending stiffness [1, 11]: increases
- femur bending strength [1, 11]: does not significantly increase

Molecule: CC(C)(C)NC(=O)[C@H]1CC[C@H]2[C@@H]3CC[C@H]4NC(=O)C=C[C@]4(C)[C@H]3CC[C@]12C [finasteride, N-(1,1-dimethylethyl)-3-oxo-(5α,17β)-4-azaandrost-1-ene-17-carboxamide]
- IC50 [7]: 42 nM
- reduction of prostate DHT level [8]: 85-90%

Molecule: C[C@](O)(COc1ccc(C#N)cc1)C(=O)Nc1ccc(C#N)c(C(F)(F)F)c1 [ostarine]
- potency relative to Compound 2 (fold less) [9]: ~10 fold
- exposure at maximal efficacy relative to Compound 2 ([1]; restoration mode, higher exposure = decreased potency): ~10 fold

From patent publication US10874638B2, “Methods and compositions for modulating hormone levels” (priority 2014, dated 2020)
